{
  "source": "paper PMC5860131",
  "about": "“Identification of natural products as novel ligands for the human 5-HT2C receptor” (Biophysics Reports, 2018)",
  "format_in_all_cases": "binding",
  "key": {"[1]": {"biological_target": "T1, 5-HT2C receptor L209^ECL2F (Homo sapiens, UniProt P28335, DEL255-298/G251D/H250E/H252N/INS299[…]/L209F/L248D/M247A/M300L/T253W)", "T1 construct": "the N- and C-terminals were truncated by 39 and 65 residues, respectively; PreScission protease site + 10× His (C); made in house", "T1 sequence (P28335 with tags, fused parts or gaps with the stated changes)": "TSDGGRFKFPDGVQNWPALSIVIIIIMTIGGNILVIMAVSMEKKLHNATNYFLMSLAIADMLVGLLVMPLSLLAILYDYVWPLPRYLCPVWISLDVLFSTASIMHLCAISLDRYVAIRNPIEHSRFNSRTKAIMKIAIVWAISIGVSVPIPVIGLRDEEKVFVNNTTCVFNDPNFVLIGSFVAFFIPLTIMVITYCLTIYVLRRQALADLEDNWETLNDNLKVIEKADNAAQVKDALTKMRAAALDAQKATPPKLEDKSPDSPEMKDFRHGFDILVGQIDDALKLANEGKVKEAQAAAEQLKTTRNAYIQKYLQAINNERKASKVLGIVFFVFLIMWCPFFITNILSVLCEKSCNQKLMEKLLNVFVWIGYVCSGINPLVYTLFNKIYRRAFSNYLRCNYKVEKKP", "assay": "CPM thermal stability assay, 5-HT2C mutant L209F", "settings": "n = 2", "text": "(§1) Based on the binding poses predicted by molecular docking, single-point mutations were designed to test their impact on ligand binding. Mutations of several residues include the highly conserved Asp134^3.32, which is known to cause 5-HT1B or 5-HT2B receptors to abolish the monoamine ligand binding as reported in the literature (Wang et al. [2013]). In this study, residues forming hydrophobic interactions with the substitution groups on the aporphine scaffold of (–)-crebanine (1) were selected for mutation as well and they are Thr139^3.37, Gly218^5.42, Ala222^5.46, and Leu209^ECL2. Effects of those mutations were tested with the CPM assay and the affinity MS assay (Table 2). In the affinity MS experiment, relative ligand-binding capacity (represented by binding %) to different mutants and the wild-type receptor was compared. […]\nPurified 5-HT2C receptor protein was thoroughly mixed with CPM fluorescent dyes. […] Fluorescence signals, wavelength 387 nm (excitation) and 463 nm (emission), were monitored (Alexandrov et al. [2008]). […] The thermal denaturation of the samples was evaluated using the scatter plot curve, where the horizontal coordinates represented temperature and the vertical coordinates indicated normalized fluorescence intensity recorded for a particular temperature. […]"}, "5-HT2C receptor": {"biological_target": "T2, 5-HT2C receptor (Homo sapiens, UniProt P28335, DEL255-298/G251D/H250E/H252N/INS299[…]/L248D/M247A/M300L/T253W)", "T2 construct": "the N- and C-terminals were truncated by 39 and 65 residues, respectively; FLAG (N); PreScission protease site + 10× His (C); made in house; host or cells: Spodoptera frugiperda (Sf9), baculovirus", "T2 sequence (P28335 with tags, fused parts or gaps with the stated changes limits assumed)": "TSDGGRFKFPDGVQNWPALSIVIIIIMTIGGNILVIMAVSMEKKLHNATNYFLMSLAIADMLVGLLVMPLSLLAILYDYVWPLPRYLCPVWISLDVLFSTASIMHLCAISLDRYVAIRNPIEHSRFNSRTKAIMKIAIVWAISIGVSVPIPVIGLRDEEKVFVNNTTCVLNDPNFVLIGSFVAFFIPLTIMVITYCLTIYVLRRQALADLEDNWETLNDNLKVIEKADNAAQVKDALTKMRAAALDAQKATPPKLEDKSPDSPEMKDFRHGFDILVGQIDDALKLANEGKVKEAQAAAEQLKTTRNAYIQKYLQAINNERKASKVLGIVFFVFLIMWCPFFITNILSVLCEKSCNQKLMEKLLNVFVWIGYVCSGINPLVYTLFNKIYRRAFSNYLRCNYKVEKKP"}, "[2]": {"biological_target": "T3, 5-HT2C receptor T139^3.37A (Homo sapiens, UniProt P28335, DEL255-298/G251D/H250E/H252N/INS299[…]/L248D/M247A/M300L/T139A/T253W)", "T3 construct": "the N- and C-terminals were truncated by 39 and 65 residues, respectively; PreScission protease site + 10× His (C); made in house", "T3 sequence (P28335 with tags, fused parts or gaps with the stated changes)": "as the sequence (P28335 with tags, fused parts or gaps with the stated changes limits assumed) above, with T100A counted along it", "assay": "Affinity MS assay, 5-HT2C mutant T139A", "settings": "mutant T139^3.37A, n = 2", "text": "as §1, with “compared. Among the six mutations tested, five of them reduced the binding of (–)-crebanine (1) by more than 40% relative to binding to the wild-type receptor, displaying the importance of hydrophobic interactions.” for “compared.”\nFour experimental replicates were prepared for each pair of the test ligand and the negative control. […] S/C ratios refer to the ratio of MS response of a specific ligand detected in the 5-HT2C incubation sample versus the control. […]"}},
  "data": [
    {"compound": "COc1ccc2c(c1OC)C[C@@H]1c3c(cc4c(c3-2)OCO4)CCN1C", "note": "[Compound 1, (–)-crebanine]", "values": [
      {"measurement": "(–)-Crebanine/CPM (Tm)", "setting": "[1]", "value": 55.46, "unit": "°C"},
      {"measurement": "(–)-Crebanine/MS relative ligand binding", "setting": "5-HT2C receptor; WT receptor, n = 2, MS response of released ligand divided by total ligand in incubation sample", "value": 27.57, "unit": "%"},
      {"measurement": "S/C", "setting": "5-HT2C receptor; ratio of MS response in 5-HT2C incubation sample versus control (hydroxycarboxylic acid receptor 2), 500 nmol/L protein, 250 nmol/L ligand, n = 4", "value": "9.15 ± 1.43"},
      {"measurement": "(–)-Crebanine/MS relative ligand binding", "setting": "[2]", "value": 14.64, "unit": "%"}
    ]}
  ]
}
